Experimental data published in article PMC8115619, “Generation of a chemical genetic model for JAK3” (Scientific Reports, 2021).
Entries after “also recorded” stand apart in the source; their conditions may differ.

Key:
[1] = tested on: GM-CSF induced STAT5 phosphorylation in BMDMs; assay: GM-CSF induced STAT5 phosphorylation in macrophages; format: cell-based, mouse; conditions: wild type BMDMs, 10 μM inhibitor 2 h, 10 ng/ml GM-CSF
Protocol: (§1) (A) BMDMs were isolated from wild type mice. Cells were incubated with the indicated inhibitors in μM for 2 h before stimulation with 10 ng/ml IL-4 for 30 min. The levels of phosphorylated STAT6 were then determined by immunoblotting. (B) As (A) except cells were stimulated 10 ng/ml GM-CSF and the levels of phosphorylated STAT5 determined. (C) As (A) except cells were stimulated 10 ng/ml IL-10 and the levels of phosphorylated STAT3 determined. (D) As (A) except cells were stimulated 10 ng/ml IFNβ and the levels of phosphorylated STAT1 determined. For A–D, levels of ERK1/2 were determined as a loading control.
Bone marrow derived macrophages (BMDMs) were cultured as described. Briefly, bone marrow was flushed in PBS from the femurs and tibias of mice. […]
(§2) Cells were lysed directly into SDS sample buffer and aliquots run on 10% polyacrylamide gels using standard methods. Proteins were transferred onto nitrocellulose membranes, and specific proteins were detected by immunoblotting. […] Bands were detected using Clarity ECL reagents from BioRad and imaged on a Licor Odyssey Fc system. Quantification was carried out using Licor Image Studio software. After correction for the ERK1/2 levels to account for loading differences, percentage inhibition was calculated relative to the IL-4 stimulated condition. IC50 values were calculated using the same methods as for the in vitro IC50 values.

[2] = tested on: IL-10 induced STAT3 phosphorylation in BMDMs; assay: IL-10 induced STAT3 phosphorylation in macrophages; format: cell-based, mouse; conditions: wild type BMDMs, inhibitor 2 h, 10 ng/ml IL-10
Protocol: as §1
Bone marrow derived macrophages (BMDMs) were cultured as described. Briefly, bone marrow was flushed in PBS from the femurs and tibias of mice. Cells were cultured on bacterial grade plastic for 7 days at 37 °C, 5% CO2. Cells were then detached using Versene (Gibco), re-plated on tissue culture plastic in BMDM media (in DMEM supplemented with 10% heat inactivated FBS (Labtech), 2 mM L-glutamine, 100 U/ml penicillin G, 100 μg/ml streptomycin and 0.25 μg/ml amphotericin, 5 ng/ml M-CSF) and used within 48 h. Where indicated cells were stimulated with 10 ng/ml IL-4, 10 ng/ml GM-CSF, 10 ng/ml IL-10 or 10 ng/ml IFNβ. All cytokines were from PeproTech.
as §2, with “immunoblotting. Antibodies against tyrosine phosphorylated STATs were from Cell Signaling Technology (phospho-STAT1 #9167, phospho-STAT3 #9131, phospho-STAT5 #4322 and phospho-STAT6 #9361).” for “immunoblotting.”

BRK = BRK (Homo sapiens, UniProt Q13882); assay: Selectivity screen BRK; format: biochemical; conditions: 1 µM inhibitor, mean
CAMK1 = CAMK1 (Homo sapiens, UniProt Q14012); assay: Selectivity screen CAMK1; format: biochemical; conditions: 1 µM inhibitor, mean
Protocol: (§3) For the in vitro kinase assay, JAK3 (5–20 mU diluted in 50 mM Tris pH 7.5, 0.1 mM EGTA, 0.05% β-mercaptoethanol, 1 mg/ml BSA) was assayed against PDKtide ([…]) in a final volume of 25.5 µl containing 50 mM Tris pH 7.5, 0.1 mM EGTA, 0.05% β-mercaptoethanol, 100 µM substrate peptide, 10 mM magnesium acetate and 0.02 mM [33P-γ-ATP] (50–1000 cpm/pmole) and incubated for 30 min at room temperature. Assays were started by the addition of the ATP and stopped by addition of 5 µl of 0.5 M (3%) orthophosphoric acid and then harvested onto P81 Unifilter plates with a wash buffer of 50 mM orthophosphoric acid. To determine the Km for ATP, assays were run using 1, 5, 10, 20, 50, 100, 200, 400, 500 μM ATP and Km derived by non-linear regression fitting to the Michaelis–Menten equation v = Vmax[S]/(Km + [S]). IC50 values for inhibitors via non-linear regression using a parameter model: Y = Bottom + (Top–Bottom)/(1 + (IC50/X)^HillSlope). Non-linear regression was carried out in Prism (version 8). In vitro selectivity screen was carried out as described previously.

CHK2 = CHK2 (Homo sapiens, UniProt O96017); assay: Selectivity screen CHK2; format: biochemical; conditions: 1 µM inhibitor, mean
Protocol: as §3

CSK = CSK (Homo sapiens, UniProt P41240); assay: Selectivity screen CSK; format: biochemical; conditions: 1 µM inhibitor, mean
Protocol: as §3

EPH-A2 = EPH-A2 (Homo sapiens, UniProt P29317); assay: Selectivity screen EPH-A2; format: biochemical; conditions: 1 µM inhibitor, mean
Protocol: as §3

HIPK3 = HIPK3 (Homo sapiens, UniProt Q9H422); assay: Selectivity screen HIPK3; format: biochemical; conditions: 1 µM inhibitor, mean
Protocol: as §3

JNK3 = JNK3 (Homo sapiens, UniProt P53779); assay: Selectivity screen JNK3; format: biochemical; conditions: 1 µM inhibitor, mean
Protocol: as §3

MELK = MELK (Homo sapiens, UniProt Q14680); assay: Selectivity screen MELK; format: biochemical; conditions: 1 µM inhibitor, mean
Protocol: as §3

MINK1 = MINK1 (Homo sapiens, UniProt Q8N4C8); assay: Selectivity screen MINK1; format: biochemical; conditions: 1 µM inhibitor, mean
Protocol: as §3

MNK1 = MNK1 (Homo sapiens, UniProt Q9BUB5); assay: Selectivity screen MNK1; format: biochemical; conditions: 1 µM inhibitor, mean
Protocol: as §3

MSK1 = MSK1 (Homo sapiens, UniProt O75582); assay: Selectivity screen MSK1; format: biochemical; conditions: 1 µM inhibitor, mean
Protocol: as §3

MST3 = MST3 (Homo sapiens, UniProt Q9Y6E0); assay: Selectivity screen MST3; format: biochemical; conditions: 1 µM inhibitor, mean
Protocol: as §3

p38a MAPK = p38a MAPK (Homo sapiens, UniProt Q16539); assay: Selectivity screen p38a MAPK; format: biochemical; conditions: 1 µM inhibitor, mean
Protocol: as §3

PAK4 = PAK4 (Homo sapiens, UniProt O96013); assay: Selectivity screen PAK4; format: biochemical; conditions: 1 µM inhibitor, mean
Protocol: as §3

PDGFRA = PDGFRA (Homo sapiens, UniProt P16234); assay: Selectivity screen PDGFRA; format: biochemical; conditions: 1 µM inhibitor, mean
Protocol: as §3

ROCK 2 = ROCK 2 (Homo sapiens, UniProt O75116); assay: Selectivity screen ROCK 2; format: biochemical; conditions: 1 µM inhibitor, mean
Protocol: as §3

SIK3 = SIK3 (Homo sapiens, UniProt Q9Y2K2); assay: Selectivity screen SIK3; format: biochemical; conditions: 1 µM inhibitor, mean
Protocol: as §3

SRPK1 = SRPK1 (Homo sapiens, UniProt Q96SB4); assay: Selectivity screen SRPK1; format: biochemical; conditions: 1 µM inhibitor, mean
Protocol: as §3

TESK1 = TESK1 (Homo sapiens, UniProt Q15569); assay: Selectivity screen TESK1; format: biochemical; conditions: 1 µM inhibitor, mean
Protocol: as §3

TGFBR1 = TGFBR1 (Homo sapiens, UniProt P36897); assay: Selectivity screen TGFBR1; format: biochemical; conditions: 1 µM inhibitor, mean
Protocol: as §3

TTK = TTK (Homo sapiens, UniProt P33981); assay: Selectivity screen TTK; format: biochemical; conditions: 1 µM inhibitor, mean
Protocol: as §3

p38a MAPK, sequence (Q16539 whole entry): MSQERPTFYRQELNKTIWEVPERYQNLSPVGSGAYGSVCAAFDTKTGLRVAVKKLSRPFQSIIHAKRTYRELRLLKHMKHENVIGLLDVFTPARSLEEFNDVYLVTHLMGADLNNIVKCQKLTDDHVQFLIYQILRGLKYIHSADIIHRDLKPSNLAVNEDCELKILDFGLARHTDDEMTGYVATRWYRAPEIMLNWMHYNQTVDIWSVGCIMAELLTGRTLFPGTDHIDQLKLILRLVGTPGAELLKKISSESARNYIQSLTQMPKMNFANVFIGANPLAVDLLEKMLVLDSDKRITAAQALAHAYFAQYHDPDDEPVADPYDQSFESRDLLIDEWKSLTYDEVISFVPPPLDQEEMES
PAK4, sequence (O96013 whole entry): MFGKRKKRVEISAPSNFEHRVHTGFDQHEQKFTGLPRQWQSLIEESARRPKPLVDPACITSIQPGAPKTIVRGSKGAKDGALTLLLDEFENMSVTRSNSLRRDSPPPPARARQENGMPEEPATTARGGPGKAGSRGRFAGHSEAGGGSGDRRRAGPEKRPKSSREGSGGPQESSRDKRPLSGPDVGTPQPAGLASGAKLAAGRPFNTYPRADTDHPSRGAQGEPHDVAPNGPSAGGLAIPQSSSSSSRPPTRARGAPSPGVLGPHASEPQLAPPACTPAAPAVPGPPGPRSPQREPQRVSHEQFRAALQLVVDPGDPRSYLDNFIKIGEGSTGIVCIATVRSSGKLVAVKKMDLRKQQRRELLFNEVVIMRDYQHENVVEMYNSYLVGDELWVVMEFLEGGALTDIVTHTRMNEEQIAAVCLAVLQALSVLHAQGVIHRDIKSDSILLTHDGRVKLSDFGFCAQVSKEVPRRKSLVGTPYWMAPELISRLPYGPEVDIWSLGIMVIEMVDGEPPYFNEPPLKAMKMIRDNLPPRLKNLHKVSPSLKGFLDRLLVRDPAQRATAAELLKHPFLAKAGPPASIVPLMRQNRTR
BRK, sequence (Q13882 whole entry): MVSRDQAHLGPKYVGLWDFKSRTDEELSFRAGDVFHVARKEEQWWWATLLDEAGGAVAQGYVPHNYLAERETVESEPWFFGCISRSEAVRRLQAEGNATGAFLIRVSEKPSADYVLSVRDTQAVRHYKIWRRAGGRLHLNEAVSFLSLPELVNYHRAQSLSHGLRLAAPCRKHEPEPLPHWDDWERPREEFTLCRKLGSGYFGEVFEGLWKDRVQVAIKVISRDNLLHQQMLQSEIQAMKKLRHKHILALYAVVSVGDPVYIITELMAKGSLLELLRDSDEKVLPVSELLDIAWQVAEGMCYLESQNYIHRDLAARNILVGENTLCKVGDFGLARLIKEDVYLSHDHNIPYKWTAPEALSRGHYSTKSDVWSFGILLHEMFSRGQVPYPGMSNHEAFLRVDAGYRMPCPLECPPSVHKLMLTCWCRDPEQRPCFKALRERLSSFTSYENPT
MSK1, sequence (O75582 whole entry): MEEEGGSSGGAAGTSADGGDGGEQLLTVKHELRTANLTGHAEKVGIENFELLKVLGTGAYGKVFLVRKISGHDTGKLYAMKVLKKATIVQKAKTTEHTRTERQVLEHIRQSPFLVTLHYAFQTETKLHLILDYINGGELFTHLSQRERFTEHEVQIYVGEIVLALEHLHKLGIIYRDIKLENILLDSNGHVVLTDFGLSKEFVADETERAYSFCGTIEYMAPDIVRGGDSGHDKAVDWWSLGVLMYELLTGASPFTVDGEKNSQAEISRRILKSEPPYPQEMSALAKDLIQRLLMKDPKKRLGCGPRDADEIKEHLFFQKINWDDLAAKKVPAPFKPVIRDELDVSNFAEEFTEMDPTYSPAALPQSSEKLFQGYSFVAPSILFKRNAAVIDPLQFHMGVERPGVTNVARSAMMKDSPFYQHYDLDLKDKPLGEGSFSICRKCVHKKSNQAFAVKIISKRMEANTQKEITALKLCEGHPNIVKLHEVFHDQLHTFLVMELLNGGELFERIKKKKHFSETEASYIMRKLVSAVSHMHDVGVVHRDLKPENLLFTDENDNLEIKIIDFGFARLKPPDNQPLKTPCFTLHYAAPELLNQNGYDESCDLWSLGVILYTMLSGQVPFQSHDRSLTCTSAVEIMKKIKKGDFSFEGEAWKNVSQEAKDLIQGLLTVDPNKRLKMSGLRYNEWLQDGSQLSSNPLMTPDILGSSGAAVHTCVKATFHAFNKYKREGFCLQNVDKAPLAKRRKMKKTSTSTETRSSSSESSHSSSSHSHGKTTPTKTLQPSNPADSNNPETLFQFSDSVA
MNK1, sequence (Q9BUB5 whole entry): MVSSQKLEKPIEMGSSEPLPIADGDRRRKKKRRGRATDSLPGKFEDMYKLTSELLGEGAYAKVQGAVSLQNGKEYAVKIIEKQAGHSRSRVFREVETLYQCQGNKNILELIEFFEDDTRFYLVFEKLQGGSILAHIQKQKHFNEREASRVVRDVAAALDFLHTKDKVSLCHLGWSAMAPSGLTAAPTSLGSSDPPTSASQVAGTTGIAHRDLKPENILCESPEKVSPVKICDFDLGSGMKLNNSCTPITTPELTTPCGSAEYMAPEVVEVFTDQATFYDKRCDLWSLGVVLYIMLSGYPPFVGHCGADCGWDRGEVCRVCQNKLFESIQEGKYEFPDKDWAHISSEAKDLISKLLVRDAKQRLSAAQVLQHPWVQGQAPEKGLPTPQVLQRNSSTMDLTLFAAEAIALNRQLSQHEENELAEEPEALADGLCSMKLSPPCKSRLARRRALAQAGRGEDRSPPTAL
MELK, sequence (Q14680 whole entry): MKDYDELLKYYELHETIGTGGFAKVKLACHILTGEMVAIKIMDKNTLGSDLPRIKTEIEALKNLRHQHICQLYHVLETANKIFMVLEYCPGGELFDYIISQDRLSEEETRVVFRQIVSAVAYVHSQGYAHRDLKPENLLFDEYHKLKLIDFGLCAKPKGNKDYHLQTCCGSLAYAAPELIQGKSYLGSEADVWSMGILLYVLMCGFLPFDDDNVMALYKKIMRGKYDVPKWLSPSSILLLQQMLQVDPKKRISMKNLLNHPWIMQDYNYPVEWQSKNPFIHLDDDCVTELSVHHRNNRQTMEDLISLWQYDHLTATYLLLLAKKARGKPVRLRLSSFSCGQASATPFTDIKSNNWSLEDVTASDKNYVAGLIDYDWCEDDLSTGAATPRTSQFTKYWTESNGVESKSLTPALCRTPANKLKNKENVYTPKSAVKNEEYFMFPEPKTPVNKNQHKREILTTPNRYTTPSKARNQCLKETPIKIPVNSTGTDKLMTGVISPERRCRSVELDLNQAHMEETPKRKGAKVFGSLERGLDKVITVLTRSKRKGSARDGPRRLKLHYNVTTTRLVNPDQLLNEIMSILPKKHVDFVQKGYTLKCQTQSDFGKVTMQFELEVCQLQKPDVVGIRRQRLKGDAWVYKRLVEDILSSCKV
ROCK 2, sequence (O75116 whole entry): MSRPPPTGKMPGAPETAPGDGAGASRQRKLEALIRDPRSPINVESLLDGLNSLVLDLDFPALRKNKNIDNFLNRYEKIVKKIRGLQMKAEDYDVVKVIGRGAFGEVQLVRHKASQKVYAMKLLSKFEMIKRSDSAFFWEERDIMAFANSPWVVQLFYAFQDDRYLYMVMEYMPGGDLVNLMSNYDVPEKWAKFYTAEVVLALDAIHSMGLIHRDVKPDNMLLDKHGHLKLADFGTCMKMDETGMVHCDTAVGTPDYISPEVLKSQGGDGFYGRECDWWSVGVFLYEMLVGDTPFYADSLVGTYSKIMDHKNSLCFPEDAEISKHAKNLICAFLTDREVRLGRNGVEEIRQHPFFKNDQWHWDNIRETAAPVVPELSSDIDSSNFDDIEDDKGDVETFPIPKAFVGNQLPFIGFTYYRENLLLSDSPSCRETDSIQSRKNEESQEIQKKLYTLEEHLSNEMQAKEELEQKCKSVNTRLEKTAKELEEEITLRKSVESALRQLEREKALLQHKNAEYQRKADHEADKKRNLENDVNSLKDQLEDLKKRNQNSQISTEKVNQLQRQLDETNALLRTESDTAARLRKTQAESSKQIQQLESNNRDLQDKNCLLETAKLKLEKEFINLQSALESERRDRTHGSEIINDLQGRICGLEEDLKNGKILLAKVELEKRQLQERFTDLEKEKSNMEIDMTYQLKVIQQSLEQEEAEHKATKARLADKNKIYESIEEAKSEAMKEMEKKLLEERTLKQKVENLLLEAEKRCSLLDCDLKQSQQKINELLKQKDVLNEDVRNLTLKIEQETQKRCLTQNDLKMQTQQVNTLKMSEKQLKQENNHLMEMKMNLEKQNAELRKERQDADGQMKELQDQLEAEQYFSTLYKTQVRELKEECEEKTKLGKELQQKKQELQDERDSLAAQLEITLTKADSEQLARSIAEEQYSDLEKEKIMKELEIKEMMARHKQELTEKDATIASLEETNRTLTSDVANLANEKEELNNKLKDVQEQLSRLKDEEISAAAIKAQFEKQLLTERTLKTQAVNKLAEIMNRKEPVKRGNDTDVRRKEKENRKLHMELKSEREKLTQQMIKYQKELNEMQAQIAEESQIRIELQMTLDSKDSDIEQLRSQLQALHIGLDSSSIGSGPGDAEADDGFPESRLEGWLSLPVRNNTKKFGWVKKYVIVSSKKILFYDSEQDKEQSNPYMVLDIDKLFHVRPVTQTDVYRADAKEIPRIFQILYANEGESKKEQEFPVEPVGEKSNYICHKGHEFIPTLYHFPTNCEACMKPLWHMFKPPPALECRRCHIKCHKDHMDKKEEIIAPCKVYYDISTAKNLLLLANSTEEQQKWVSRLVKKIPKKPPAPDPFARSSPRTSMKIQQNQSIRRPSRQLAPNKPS

C=CC(=O)N1C[C@H](Nc2ncnc3[nH]ccc23)CC[C@@H]1C [PF-06651600, 1-((2S,5R)-5-((7H-Pyrrolo[2,3-d]pyrimidin-4-yl)amino)-2-methylpiperidin-1-yl)prop-2-en-1-one, reference compound]
inhibition of GM-CSF induced STAT5 phosphorylation [1]: Neither TL8-52 or PF-06651600 inhibited; also recorded: did not block | effect on IL-10 signaling (IL-10 induced STAT3 phosphorylation) [2]: did not block | effect on IL-10 signaling (IL-10 induced STAT3 phosphorylation) ([2]; listed as PF-0665160): no effect

C=CC(=O)Nc1cccc(CNc2nc(Nc3ccc(N4CCN(C)CC4)cc3OC)ncc2Cl)c1 [TL6-144]
activity remaining in the presence of the inhibitor: BRK (BRK): 94 | activity remaining in the presence of the inhibitor: CAMK1 (CAMK1): 68 | activity remaining in the presence of the inhibitor: CHK2 (CHK2): 38 | activity remaining in the presence of the inhibitor: CSK (CSK): 113 | activity remaining in the presence of the inhibitor: EPH-A2 (EPH-A2): 72 | activity remaining in the presence of the inhibitor: HIPK3 (HIPK3): 91 | activity remaining in the presence of the inhibitor: JNK3 (JNK3): 87 | activity remaining in the presence of the inhibitor: MELK (MELK): 69 | activity remaining in the presence of the inhibitor: MINK1 (MINK1): 80 | activity remaining in the presence of the inhibitor: MNK1 (MNK1): 105 | activity remaining in the presence of the inhibitor: MSK1 (MSK1): 86 | activity remaining in the presence of the inhibitor: MST3 (MST3): 99 | activity remaining in the presence of the inhibitor: p38a MAPK (p38a MAPK): 96 | activity remaining in the presence of the inhibitor: PAK4 (PAK4): 99 | activity remaining in the presence of the inhibitor: PDGFRA (PDGFRA): 67 | activity remaining in the presence of the inhibitor: ROCK 2 (ROCK 2): 83 | activity remaining in the presence of the inhibitor: SIK3 (SIK3): 89 | activity remaining in the presence of the inhibitor: SRPK1 (SRPK1): 91 | activity remaining in the presence of the inhibitor: TESK1 (TESK1): 99 | activity remaining in the presence of the inhibitor: TGFBR1 (TGFBR1): 83 | activity remaining in the presence of the inhibitor: TTK (TTK): 96

C=CC(=O)Nc1cccc(CNc2nc(Nc3ccc(N4CCOCC4)cc3)ncc2Cl)c1 [TL8-52]
inhibition of GM-CSF induced STAT5 phosphorylation [1]: Neither TL8-52 or PF-06651600 inhibited | effect on IL-10 signaling (IL-10 induced STAT3 phosphorylation) [2]: no effect; also recorded: did not block | activity remaining in the presence of the inhibitor: BRK (BRK): 94 | activity remaining in the presence of the inhibitor: CAMK1 (CAMK1): 97 | activity remaining in the presence of the inhibitor: CHK2 (CHK2): 75 | activity remaining in the presence of the inhibitor: CSK (CSK): 73 | activity remaining in the presence of the inhibitor: EPH-A2 (EPH-A2): 87 | activity remaining in the presence of the inhibitor: HIPK3 (HIPK3): 107 | activity remaining in the presence of the inhibitor: JNK3 (JNK3): 69 | activity remaining in the presence of the inhibitor: MELK (MELK): 66 | activity remaining in the presence of the inhibitor: MINK1 (MINK1): 80 | activity remaining in the presence of the inhibitor: MNK1 (MNK1): 112 | activity remaining in the presence of the inhibitor: MSK1 (MSK1): 54 | activity remaining in the presence of the inhibitor: MST3 (MST3): 97 | activity remaining in the presence of the inhibitor: p38a MAPK (p38a MAPK): 119 | activity remaining in the presence of the inhibitor: PAK4 (PAK4): 85 | activity remaining in the presence of the inhibitor: PDGFRA (PDGFRA): 35 | activity remaining in the presence of the inhibitor: ROCK 2 (ROCK 2): 93 | activity remaining in the presence of the inhibitor: SIK3 (SIK3): 59 | activity remaining in the presence of the inhibitor: SRPK1 (SRPK1): 97 | activity remaining in the presence of the inhibitor: TESK1 (TESK1): 91 | activity remaining in the presence of the inhibitor: TGFBR1 (TGFBR1): 104 | activity remaining in the presence of the inhibitor: TTK (TTK): 49
